25 compounds from patent publication US7960556B2, “Thiadiazole derivatives for the treatment of neuro-degenerative diseases” (NV reMYND, priority 2006, dated 2011) can be followed below.

SMILES strings stand for the structures. pEC50: −log10 of the molar value.

The subject of the assay is α-synuclein cytotoxicity in M17-SYNwt cells. Kind of assay: α-synuclein cytotoxicity assay: LDH leakage from paraquat-treated M17-SYNwt neuroblastoma cells.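 As to all read-outs here: paraquat at 32 mM co-added with compound, 40 h exposure, LDH activity released into the culture medium measured, references are DMSO-only cells and paraquat plus DMSO cells.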 The conditions noted are these: Homo sapiens, Neuroblastoma cell; for Emax: read-out: % Inhib. A general note: LDH leaks from cells whose membrane has failed.

In general, pEC50 refers to the negative decadic logarithm of the EC50, by convention in mol/L. The low end stands for a high EC50, the high end for a low EC50.

Text: An α-synuclein expression plasmid was constructed by sub-cloning the NcoI/XhoI fragment from 212T-SYN(WT) (Griffioen et al., Biochem Biophys Acta (2006) 1762(3):312-318) containing the cDNA of human wild type α-synuclein correspondingly into a standard mammalian expression vector pcDNA3.1 (Invitrogen) resulting into the plasmid pcDNA3.1-SYNwt. Plasmids pcDNA3.1 and pcDNA3.1-SYNwt were transfected to human neuroblastoma cells (ATCC No. CRL-2267) and independent clonal lines with the plasmids stably integrated into the genome were selected. […] Over-expression of α-synuclein in M17-SYNwt cell lines was confirmed by Western analysis.
Due to the high levels of α-synuclein M17-SYNwt cells are exquisitely sensitivity to paraquat, a well-known risk factor of synuclein-dependent neuronal degeneration. In degenerated or dead cells lactate dehydrogenase (LDH) is leaked out of the cells into the extracellular environment due to a loss of plasma-membrane integrity. This principle was used to determine cytotoxicity by quantifying the level of leaked LDH into the growth medium.
The detailed method for determining α-synuclein cytotoxicity was as follows: From appropriate precultures of M17 and M17-SYN cells were seeded at 50,000 cells/cm^2 in Optimem Reduced Serum without phenol red (available from InVitrogen, Cat. 31985-047) supplemented with 5% fetal calf serum, 1 mM sodium pyruvate, 1× non-essential amino acids, 500 μg/ml G418 0,5× antibiotic/antimycotic. After 3 hours of incubation at 37° C./5% CO2 paraquat was added to the cells (final concentration of 32 mM), together with the test compound and the cells were further incubated for 40 hours. Subsequently, LDH activity was determined using Promega Cytotox 96 Non-Radioactive cytotoxicity assay, (Cat. G1780) according the instructions of the supplier.
In these experiments, the control group consisted of M17-SYNwt cells treated with DMSO, the untreated paraquat group consisted of M17-SYNwt cells treated with paraquat and DMSO, and the treated paraquat group consisted of M17-SYNwt cells treated with paraquat and the test compound dissolved in DMSO.

In the case of `O=C(Cc1ccccc1)N1CCN(c2nc(Cc3ccc(F)cc3)ns2)CC1` [compound 1, 4-phenylacetyl-1-[3-(4-fluorobenzyl)-1,2,4-thiadiazol-5-yl]piperazine], the negative logarithm of the EC50 (pEC50) is 6.82 and the Emax was found to be 75%. Regarding `O=C(Cc1ccc(F)cc1)N1CCN(c2nc(Cc3ccc(F)cc3)ns2)CC1` [compound 2, 4-(4-fluorophenylacetyl),-1-[3-(4-fluorobenzyl)-1,2,4-thiadiazol-5-yl]piperazine], the negative logarithm of the EC50 (pEC50) was 6.60 and the Emax is 54%. The corresponding values for `Cc1ccc(Cc2nsc(N3CCN(C(=O)Cc4ccc(F)cc4)C(C)C3)n2)cc1` (stereo not shown) [compound 3, 1-(4-fluorophenylacetyl)-4-[3-(4-methylbenzyl)-1,2,4-thiadiazol-5-yl]-2-methylpiperazine] are 5.66 and 76%.

`COc1ccc(CC(=O)N2CCN(c3nc(Cc4ccc(F)cc4)ns3)CC2C)cc1` (stereo not shown) [compound 4, 1-(4-methoxyphenylacetyl)-4-[3-(4-fluorobenzyl)-1,2,4-thiadiazol-5-yl]-2-methylpiperazine]: the pEC50 is 6.09 and the Emax was 56%. As to `CC1CN(c2nc(Cc3ccc(F)cc3)ns2)CCN1C(=O)Cc1ccccc1` (stereo not shown) [compound 5, 1-phenylacetyl-4-[3-(4-fluorobenzyl)-1,2,4-thiadiazol-5-yl]-2-methylpiperazine], the Emax was determined as 83%. For `CC1CN(c2nc(Cc3ccc(F)cc3)ns2)CCN1C(=O)Cc1ccc(F)cc1` (stereo not shown) [compound 6], the Emax is 75%. On the same count and under the same terms, the result for `CC1CN(c2nc(Cc3ccc(F)cc3)ns2)CCN1C(=O)C(Cl)c1ccccc1` (stereo not shown) [compound 7, 1-[chloro(phenyl)acetyl]-4-[3-(4-fluorobenzyl)-1,2,4-thiadiazol-5-yl]-2-methylpiperazine] reads 69%. On to `CCC(C(=O)N1CCN(c2nc(Cc3ccc(F)cc3)ns2)CC1C)c1ccccc1` (stereo not shown) [compound 8, 1-(2-phenylbutanoyl)-4-[3-(4-fluorobenzyl)-1,2,4-thiadiazol-5-yl]-2-methylpiperazine], for which the pEC50 was 5.83 and the Emax stood at 71%. The matching figures for `O=C(Nc1cccc(F)c1)N1CCN(c2nc(Cc3ccc(F)cc3)ns2)CC1` [compound 9, N-(3-fluorophenyl)-4-[3-(4-fluorobenzyl)-1,2,4-thiadiazol-5-yl]piperazine-1-carboxamide]: 6.28 and 53%. The corresponding values for `Cc1ccccc1NC(=O)N1CCN(c2nc(Cc3ccc(F)cc3)ns2)CC1C` (stereo not shown) [compound 10, N-(2-methylphenyl)-4-[3-(4-fluorobenzyl)-1,2,4-thiadiazol-5-yl]-2-methylpiperazine-1-carboxamide] are 6.22 and 72%. The corresponding values for `CCc1ccc(NC(=O)N2CCN(c3nc(Cc4ccc(F)cc4)ns3)CC2C)cc1` (stereo not shown) [compound 11, N-(4-ethylphenyl)-4-[3-(4-fluorobenzyl)-1,2,4-thiadiazol-5-yl]-2-methylpiperazine-1-carboxamide] are 6.16 and 73%. Regarding `CCc1ccccc1NC(=O)N1CCN(c2nc(Cc3ccc(F)cc3)ns2)CC1C` (stereo not shown) [compound 12, N-(2-ethylphenyl)-4-[3-(4-fluorobenzyl)-1,2,4-thiadiazol-5-yl]-2-methylpiperazine-1-carboxamide], the pEC50 was 6.05 and the Emax was determined as 92%.

For the compound `O=C(Nc1ccccc1)N1CCN(c2nc(Cc3ccc(F)cc3)ns2)CC1` [compound 13, N-phenyl-4-[3-(4-fluorobenzyl)-1,2,4-thiadiazol-5-yl]piperazine-1-carboxamide], the pEC50 was 5.91 and the Emax was found to be 71%.

On to `CCOc1ccc(NC(=O)N2CCN(c3nc(Cc4ccc(F)cc4)ns3)CC2C)cc1` (stereo not shown) [compound 14, N-(4-ethoxyphenyl)-4-[3-(4-fluorobenzyl)-1,2,4-thiadiazol-5-yl]-2-methylpiperazine-1-carboxamide], for which the pEC50 was 5.76 and the Emax was determined as 70%. For `Cc1ccccc1NC(=O)N1CCN(c2nc(Cc3ccc(F)cc3)ns2)CC1` [compound 15, N-(2-methylphenyl)-4-[3-(4-fluorobenzyl)-1,2,4-thiadiazol-5-yl]piperazine-1-carboxamide], the pEC50 was 5.30 and the Emax is 65%.

Turning to `O=C(Nc1ccccc1F)N1CCN(c2nc(Cc3ccc(F)cc3)ns2)CC1` [compound 16, N-(2-fluorophenyl)-4-[3-(4-fluorobenzyl)-1,2,4-thiadiazol-5-yl]piperazine-1-carboxamide], the pEC50 was 5.25 and the Emax is 72%. For `O=C(Nc1ccccc1C(F)(F)F)N1CCN(c2nc(Cc3ccc(F)cc3)ns2)CC1` [compound 17, N-(2-trifluoromethylphenyl)-4-[3-(4-fluorobenzyl)-1,2,4-thiadiazol-5-yl]piperazine-1-carboxamide], the Emax was determined as 46%. Regarding `CC1CN(c2nc(Cc3ccc(F)cc3)ns2)CCN1C(=O)Nc1ccccc1C(F)(F)F` (stereo not shown) [compound 18, N-(2-trifluoromethylphenyl)-4-[3-(4-fluorobenzyl)-1,2,4-thiadiazol-5-yl]-2-methylpiperazine-1-carboxamide], the Emax stood at 41%. With `Cc1cccc(C)c1NC(=O)N1CCN(c2nc(Cc3ccc(F)cc3)ns2)CC1C` (stereo not shown) [compound 19, N-(2,6-dimethylphenyl)-4-[3-(4-fluorobenzyl)-1,2,4-thiadiazol-5-yl]-2-methylpiperazine-1-carboxamide], the pEC50 was 6.70 and the Emax is 95%. For the compound `Cc1ccc(NC(=O)N2CCN(c3nc(Cc4ccc(F)cc4)ns3)CC2C)c(C)c1` (stereo not shown) [compound 20, N-(2,4-dimethylphenyl)-4-[3-(4-fluorobenzyl)-1,2,4-thiadiazol-5-yl]-2-methylpiperazine-1-carboxamide], the pEC50 is 6.12 and the Emax was 106%. The matching figures for `CC1CN(c2nc(Cc3ccc(F)cc3)ns2)CCN1C(=O)Nc1ccc(F)cc1F` (stereo not shown) [compound 23, N-(2,4-difluorophenyl)-4-[3-(4-fluorobenzyl)-1,2,4-thiadiazol-5-yl]-2-methylpiperazine-1-carboxamide]: 6.03 and 66%. The corresponding values for `Cc1cccc(C)c1NC(=O)N1CCN(c2nc(Cc3ccc(F)cc3)ns2)CC1` [compound 24, N-(2,6-dimethylphenyl)-4-[3-(4-fluorobenzyl)-1,2,4-thiadiazol-5-yl]piperazine-1-carboxamide] are 5.92 and 124%. The corresponding values for `CC1CN(c2nc(Cc3ccc(F)cc3)ns2)CCN1C(=O)Nc1cccc2ccccc12` (stereo not shown) [compound 25, N-1-naphtyl-4-[3-(4-fluorobenzyl)-1,2,4-thiadiazol-5-yl]-2-methylpiperazine-1-carboxamide] are 5.77 and 97%. `CC1CN(c2nc(Cc3ccc(F)cc3)ns2)CCN1C(=O)Nc1ccc(F)c(F)c1` (stereo not shown) [compound 26, N-(3,4-difluorophenyl)-4-[3-(4-fluorobenzyl)-1,2,4-thiadiazol-5-yl]-2-methylpiperazine-1-carboxamide]: the Emax came out at 70%. Still for that read-out and setting: the result for `COc1ccc(NC(=O)N2CCN(c3nc(Cc4ccc(F)cc4)ns3)CC2)c(OC)c1` [compound 27, N-(2,4-dimethoxyphenyl)-4-[3-(4-fluorobenzyl)-1,2,4-thiadiazol-5-yl]piperazine-1-carboxamide] reads 67%.
